# Reference: ChEMBL document CHEMBL1139984, “Potent and selective biphenyl azole inhibitors of adipocyte fatty acid binding protein (aFABP)” (Bioorg Med Chem Lett, 2007)
# Experiments:
# [1] = molecular target: T1, Fatty acid-binding protein, adipocyte (Homo sapiens, UniProt P15090); assay: Displacement of [3H]2,3-bis[(2,4-dichlorobenzyl)oxy]benzoic acid from aFABP
# [2] = molecular target: Fatty acid-binding protein, heart (Homo sapiens, UniProt P05413); assay: Displacement of 1,8-ANS from mFABP by fluorescence based-assay
# Fatty acid-binding protein, heart, sequence (P05413 whole entry): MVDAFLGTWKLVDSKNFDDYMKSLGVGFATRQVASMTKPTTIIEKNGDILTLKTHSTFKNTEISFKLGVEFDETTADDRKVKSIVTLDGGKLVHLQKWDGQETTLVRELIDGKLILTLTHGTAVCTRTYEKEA
# [3] = molecular target: Fatty acid-binding protein 5 (Homo sapiens, UniProt Q01469); assay: Displacement of 1,8-ANS from eFABP by fluorescence based-assay
# Fatty acid-binding protein 5, sequence (Q01469 whole entry): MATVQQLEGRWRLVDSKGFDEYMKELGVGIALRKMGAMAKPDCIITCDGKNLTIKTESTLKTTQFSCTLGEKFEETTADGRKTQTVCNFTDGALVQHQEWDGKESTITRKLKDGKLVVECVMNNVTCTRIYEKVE
# [4] = molecular target: T1, Fatty acid-binding protein, adipocyte; assay: Displacement of 1,8-ANS from aFABP by fluorescence based-assay
# [5] = molecular target: T1, Fatty acid-binding protein, adipocyte; assay: Binding affinity to aFABP
# Homo sapiens = species: Homo sapiens; assay: Selectivity for aFABP over mFABP by 1,8-ANS fluorescence based-assay
# T1 sequence (P15090 whole entry): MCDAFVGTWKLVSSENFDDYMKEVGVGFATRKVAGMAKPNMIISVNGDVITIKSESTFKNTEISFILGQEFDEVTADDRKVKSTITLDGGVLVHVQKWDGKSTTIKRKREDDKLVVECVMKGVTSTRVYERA
Ki [1] [nM],Ki [2] [nM],Ki [3] [nM],Ki [4] [nM],Kd [5] [nM],Ratio Ki (Homo sapiens),Compound
13,> 1000,> 2000,3.4,–,–,CCn1c(-c2ccccc2-c2cccc(NCC(=O)O)c2)nc(-c2ccccc2)c1-c1ccccc1
–,360,550,28,–,–,CCc1c(-c2ccccc2)c(-c2ccccc2)nn1-c1ccccc1-c1cccc(C(O)C(=O)O)c1 (stereo not given)
–,> 1000,> 2000,130,–,–,CC(C)Cn1c(-c2ccccc2-c2cccc(NCC(=O)O)c2)nc(-c2ccccc2)c1-c1ccccc1
–,4,2,2,21,–,[3H]c1c(Cl)ccc(COc2cccc(C(=O)O)c2OCc2ccc(Cl)c([3H])c2Cl)c1Cl
48,> 1000,> 2000,2.7,–,–,Cn1c(-c2ccccc2-c2cccc(NCC(=O)O)c2)nc(-c2ccccc2)c1-c1ccccc1
95,> 1000,> 2000,6,–,170,O=C(O)COc1cccc(-c2ccccc2-c2nc(-c3ccccc3)c(-c3ccccc3)o2)c1
–,–,248,–,–,–,CCCCCCCC/C=C\CCCCCCCC(=O)O [OLEIC ACID]
–,> 1000,> 2000,36,–,–,O=C(O)COc1cccc(-c2ccccc2-c2cc(-c3ccccc3)c(-c3ccccc3)o2)c1
3.3,> 1000,–,< 2,–,–,CCn1c(-c2ccccc2-c2cccc(OCC(=O)O)c2)nc(-c2ccccc2)c1-c1ccccc1
8.7,> 1000,> 2000,< 2,–,–,O=C(O)COc1cccc(-c2ccccc2-c2nc(-c3ccccc3)c(-c3ccccc3)n2CCF)c1
300,> 1000,> 2000,18,–,–,O=C(O)CNc1cccc(-c2ccccc2-c2nc(-c3ccccc3)c(-c3ccccc3)[nH]2)c1
32,220,–,3.5,–,–,CCc1c(-c2ccccc2-c2cccc(OCC(=O)O)c2)oc(-c2ccccc2)c1-c1ccccc1
–,> 1000,> 2000,9.3,–,–,O=C(O)COc1cccc(-c2ccccc2-c2nc(-c3ccccc3)c(-c3ccccc3)[nH]2)c1
–,> 1000,> 2000,12,–,–,O=C(O)COc1cccc(-c2ccccc2-c2cc(-c3ccccc3)c(-c3ccccc3)[nH]2)c1
1000,–,–,–,150,–,O=S(=O)(O)c1cccc2cccc(Nc3ccccc3)c12
13,> 1000,–,< 2,–,–,Cn1c(-c2ccccc2-c2cccc(OCC(=O)O)c2)nc(-c2ccccc2)c1-c1ccccc1
–,32,> 2000,58,–,–,O=C(O)CCCCOc1ccccc1-c1nc(-c2ccccc2)c(-c2ccccc2)o1
–,> 1000,> 2000,> 2000,–,–,O=C(O)CNc1cccc(-c2ccccc2-c2nc(-c3ccccc3)c(-c3ccccc3)n2CC(=O)O)c1
–,110,–,650,–,–,CCc1c(-c2ccccc2)c(-c2ccccc2)nn1-c1ccccc1-c1cccc(C(=O)O)c1
